Measured values reported in patent US20070128217A1 (priority 2003, published 2007).

Legend:
[1] = system: antibodies in sera from SARS patients (sera 1a, 1b, 2, 6, 37, 62, London, SARS-yellow, SARS-green); assay type: binding, human; parameters: Binding of serum 6 to linear peptides of protein X1 of SARS-CoV Urbani / Binding of serum 37 to linear peptides of protein X1 of SARS-CoV Urbani / Binding of serum 6 to looped/cyclic peptide (PEPSCAN-ELISA) / Binding of serum 37 to looped/cyclic peptide (PEPSCAN-ELISA) / Binding of serum 37 to looped/cyclic peptides of protein X1 of SARS-CoV Urbani / Binding of serum 6 to linear peptides of protein X2 / Binding of serum 37 to linear peptides of protein X2 / Binding of serum 37 to looped/cyclic peptides of protein X2 of SARS-CoV Urbani / Binding of serum 6 to linear peptides of protein M of SARS-CoV Urbani / Binding of serum 37 to linear peptides of protein M of SARS-CoV Urbani / Binding of serum 6 to looped/cyclic peptides of protein M of SARS-CoV Urbani / Binding of serum 37 to looped/cyclic peptides of protein M of SARS-CoV Urbani / Binding of serum 6 to linear peptides of protein X3 of SARS-CoV Urbani / Binding of serum 37 to linear peptides of protein X3 of SARS-CoV Urbani / Binding of serum 37 to looped/cyclic peptides of protein X3 of SARS-CoV Urbani / Binding of serum 6 to linear peptides of protein X4 of SARS-CoV Urbani / Binding of serum 37 to linear peptides of protein X4 of SARS-CoV Urbani / Binding of serum 37 to looped/cyclic peptides of protein X4 of SARS-CoV Urbani / Binding of serum 6 to linear peptides of protein X5 of SARS-CoV Urbani / Binding of serum 37 to linear peptides of protein X5 of SARS-CoV Urbani / Binding of serum 37 to looped/cyclic peptides of protein X5 of SARS-CoV Urbani / Binding of serum 6 to linear peptides of protein N of SARS-CoV Urbani / Binding of serum 37 to linear peptides of protein N of SARS-CoV Urbani / Binding of serum 6 to linear peptide (PEPSCAN-ELISA) / Binding of serum 1a to looped/cyclic peptides of protein N of SARS-CoV Urbani / Binding of serum 1b to looped/cyclic peptides of protein N of SARS-CoV Urbani / Binding of serum 2 to looped/cyclic peptides of protein N of SARS-CoV Urbani / Binding of serum 6 to looped/cyclic peptides of protein N of SARS-CoV Urbani / Binding of serum 37 to looped/cyclic peptides of protein N of SARS-CoV Urbani / Binding of serum 62 to looped/cyclic peptides of protein N of SARS-CoV Urbani / Binding of serum London to looped/cyclic peptides of protein N of SARS-CoV Urbani / Binding of serum SARS-green to looped/cyclic peptides of protein N of SARS-CoV Urbani: unit not given here
[2] = system: control sera (pooled serum of ten healthy LUMC hospital workers; commercial negative donor pooled serum from the Dutch bloodbank); assay type: binding, human; parameters: Binding of Control serum LUMC to linear peptides / Binding of Control serum Blood-bank to linear peptides / Binding of Control serum LUMC to looped peptides / Binding of Control Serum Blood-Bank to Looped peptides / Binding of Control serum LUMC to linear peptides of the protein M of SARS-CoV Urbani / Binding of Control serum Blood-bank to linear peptides of the protein M of SARS-CoV Urbani / Binding of Control serum LUMC to looped peptides of the protein M of SARS-CoV Urbani / Binding of Control Serum Blood-Bank to Looped peptides of the protein M of SARS-CoV Urbani: unit not given here
[3] = system: rabbit serum obtained by immunizing a rabbit with the SARS-CoV strain Frankfurt 1; assay type: binding; parameters: Binding of a rabbit serum to linear peptides / Binding of a rabbit serum to looped peptides / Rabbit serum linear peptides / Rabbit serum looped peptides / Binding of a rabbit serum to linear peptides of protein N of SARS-CoV Urbani (Rabbit serum linear peptides) / Binding of a rabbit serum to looped/cyclic peptides of protein N of SARS-CoV Urbani (Rabbit serum looped peptides): unit not given here
[4] = system: recombinant human anti-SARS-CoV antibody 03-018; assay type: binding; parameters: Binding of antibody 03-018 to linear peptides of the N protein of SARS-CoV Urbani / Binding of antibody 03-018 to looped/cyclic peptides of the N protein of SARS-CoV Urbani: unit not given here

Sequence: RPKQRRPQGLPNNTA
- Binding of serum 1a to linear peptides of protein N of SARS-CoV Urbani [1]: 0.3
- Binding of serum 1a to looped/cyclic peptides of protein N of SARS-CoV Urbani [1]: 0.3
- Binding of serum 1b to linear peptides of protein N of SARS-CoV Urbani [1]: 0.1
- Binding of serum 1b to looped/cyclic peptides of protein N of SARS-CoV Urbani [1]: 0.1
- Binding of serum 2 to linear peptides of protein N of SARS-CoV Urbani [1]: 0.3
- Binding of serum 2 to looped/cyclic peptides of protein N of SARS-CoV Urbani [1]: 0.3
- Binding of serum 6 to linear peptides of protein N of SARS-CoV Urbani [1]: 0.2
- Binding of serum 6 to looped/cyclic peptides of protein N of SARS-CoV Urbani [1]: 0.3
- Binding of serum 37 to linear peptides of protein N of SARS-CoV Urbani [1]: 0.7
- Binding of serum 37 to looped/cyclic peptides of protein N of SARS-CoV Urbani [1]: 0.5
- Binding of serum 62 to linear peptides of protein N of SARS-CoV Urbani [1]: 0.6
- Binding of serum 62 to looped/cyclic peptides of protein N of SARS-CoV Urbani [1]: 0.5
- Binding of serum London to linear peptides of protein N of SARS-CoV Urbani [1]: 0.5
- Binding of serum London to looped/cyclic peptides of protein N of SARS-CoV Urbani [1]: 0.4
- Binding of serum SARS-green to linear peptides of protein N of SARS-CoV Urbani [1]: 0.5
- Binding of serum SARS-green to looped/cyclic peptides of protein N of SARS-CoV Urbani [1]: 0.2
- Binding of serum SARS-yellow to linear peptides of protein N of SARS-CoV Urbani [1]: 0.7
- Binding of serum SARS-yellow to looped/cyclic peptides of protein N of SARS-CoV Urbani [1]: 0.3
- Binding of Control Serum Blood-Bank to Looped peptides [2]: 0.4
- Binding of Control serum Blood-bank to linear peptides [2]: 0.8
- Binding of Control serum LUMC to linear peptides [2]: 0.7
- Binding of Control serum LUMC to looped peptides [2]: 0.5
- Binding of a rabbit serum to linear peptides of protein N of SARS-CoV Urbani (Rabbit serum linear peptides) [3]: 0.4
- Binding of a rabbit serum to looped/cyclic peptides of protein N of SARS-CoV Urbani (Rabbit serum looped peptides) [3]: 0.4
- Binding of antibody 03-018 to linear peptides of the N protein of SARS-CoV Urbani [4]: 0.1
- Binding of antibody 03-018 to looped/cyclic peptides of the N protein of SARS-CoV Urbani [4]: 0.2

Sequence: RQLQNSMSGASADST
- Binding of serum 1a to linear peptides of protein N of SARS-CoV Urbani [1]: 0.2
- Binding of serum 1a to looped/cyclic peptides of protein N of SARS-CoV Urbani [1]: 0.2
- Binding of serum 1b to linear peptides of protein N of SARS-CoV Urbani [1]: 0.2
- Binding of serum 1b to looped/cyclic peptides of protein N of SARS-CoV Urbani [1]: 0.1
- Binding of serum 2 to linear peptides of protein N of SARS-CoV Urbani [1]: 0.2
- Binding of serum 2 to looped/cyclic peptides of protein N of SARS-CoV Urbani [1]: 0.3
- Binding of serum 6 to linear peptides of protein N of SARS-CoV Urbani [1]: 0.2
- Binding of serum 6 to looped/cyclic peptides of protein N of SARS-CoV Urbani [1]: 0.1
- Binding of serum 37 to linear peptides of protein N of SARS-CoV Urbani [1]: 0.7
- Binding of serum 37 to looped/cyclic peptides of protein N of SARS-CoV Urbani [1]: 0.4
- Binding of serum 62 to linear peptides of protein N of SARS-CoV Urbani [1]: 0.6
- Binding of serum 62 to looped/cyclic peptides of protein N of SARS-CoV Urbani [1]: 0.2
- Binding of serum London to linear peptides of protein N of SARS-CoV Urbani [1]: 0.6
- Binding of serum London to looped/cyclic peptides of protein N of SARS-CoV Urbani [1]: 0.2
- Binding of serum SARS-green to linear peptides of protein N of SARS-CoV Urbani [1]: 0.3
- Binding of serum SARS-green to looped/cyclic peptides of protein N of SARS-CoV Urbani [1]: 0.1
- Binding of serum SARS-yellow to linear peptides of protein N of SARS-CoV Urbani [1]: 0.5
- Binding of serum SARS-yellow to looped/cyclic peptides of protein N of SARS-CoV Urbani [1]: 0.2
- Control Serum Blood-Bank Looped peptides [2]: 0.4
- Control serum Blood-bank linear peptides [2]: 0.7
- Control serum LUMC linear peptides [2]: 0.6
- Control serum LUMC looped peptides [2]: 0.2
- Binding of a rabbit serum to linear peptides of protein N of SARS-CoV Urbani (Rabbit serum linear peptides) [3]: 0.5
- Binding of a rabbit serum to looped/cyclic peptides of protein N of SARS-CoV Urbani (Rabbit serum looped peptides) [3]: 0.3
- Binding of antibody 03-018 to linear peptides of the N protein of SARS-CoV Urbani [4]: 0.1
- Binding of antibody 03-018 to looped/cyclic peptides of the N protein of SARS-CoV Urbani [4]: 0.2

Sequence: RRPQGLPNNTASWFT
- Binding of serum 1a to linear peptides of protein N of SARS-CoV Urbani [1]: 0.2
- Binding of serum 1a to looped/cyclic peptides of protein N of SARS-CoV Urbani [1]: 0.4
- Binding of serum 1b to linear peptides of protein N of SARS-CoV Urbani [1]: 0.1
- Binding of serum 1b to looped/cyclic peptides of protein N of SARS-CoV Urbani [1]: 0.3
- Binding of serum 2 to linear peptides of protein N of SARS-CoV Urbani [1]: 0.1
- Binding of serum 2 to looped/cyclic peptides of protein N of SARS-CoV Urbani [1]: 0.5
- Binding of serum 6 to linear peptides of protein N of SARS-CoV Urbani [1]: 0.1
- Binding of serum 6 to looped/cyclic peptides of protein N of SARS-CoV Urbani [1]: 0.3
- Binding of serum 37 to linear peptides of protein N of SARS-CoV Urbani [1]: 0.6
- Binding of serum 37 to looped/cyclic peptides of protein N of SARS-CoV Urbani [1]: 0.6
- Binding of serum 62 to linear peptides of protein N of SARS-CoV Urbani [1]: 0.6
- Binding of serum 62 to looped/cyclic peptides of protein N of SARS-CoV Urbani [1]: 0.5
- Binding of serum London to linear peptides of protein N of SARS-CoV Urbani [1]: 0.4
- Binding of serum London to looped/cyclic peptides of protein N of SARS-CoV Urbani [1]: 0.4
- Binding of serum SARS-green to linear peptides of protein N of SARS-CoV Urbani [1]: 0.2
- Binding of serum SARS-green to looped/cyclic peptides of protein N of SARS-CoV Urbani [1]: 0.6
- Binding of serum SARS-yellow to linear peptides of protein N of SARS-CoV Urbani [1]: 0.6
- Binding of serum SARS-yellow to looped/cyclic peptides of protein N of SARS-CoV Urbani [1]: 0.5
- Binding of Control Serum Blood-Bank to Looped peptides [2]: 0.7
- Binding of Control serum Blood-bank to linear peptides [2]: 0.5
- Binding of Control serum LUMC to linear peptides [2]: 0.7
- Binding of Control serum LUMC to looped peptides [2]: 0.6
- Binding of a rabbit serum to linear peptides of protein N of SARS-CoV Urbani (Rabbit serum linear peptides) [3]: 0.1
- Binding of a rabbit serum to looped/cyclic peptides of protein N of SARS-CoV Urbani (Rabbit serum looped peptides) [3]: 0.4
- Binding of antibody 03-018 to linear peptides of the N protein of SARS-CoV Urbani [4]: 0.1
- Binding of antibody 03-018 to looped/cyclic peptides of the N protein of SARS-CoV Urbani [4]: 0.2
